tested on: HEK293 cells; assay: Preliminary screening as mRNA vectors, EGFP mRNA transfection of HEK293 cells; assay type: cell-based; settings: EGFP mRNA 50 ng per well, 96-well plates; percentage of GFP fluorescent cells relative to total number of cells (Hoechst)
Procedure, shortened: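 Each well of HEK293 cells received 50 ng of EGFP mRNA. Efficiency was expressed as percent GFP-expressing cells over Hoechst-defined total cell number.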

SMILES | Absolute mRNA transfection efficiency in HEK293 cells [%]
CCCCCCCCCCCCCCCCCCNc1nc(NCCN2CCN(C)CC2)nc(SCCCCCCCCCC)n1 [Compound D5S10N18] | 2.3
CCCCCCCCCCCSc1nc(NCCCCCC)nc(NCCN2CCN(C)CC2)n1 [Compound D5S11N6] | 26.9
CCCCCCCCCCCSc1nc(NCCCCCCC)nc(NCCN2CCN(C)CC2)n1 [Compound D5S11N7] | 8.5
CCCCCCCCCCCSc1nc(NCCCCCCCC)nc(NCCN2CCN(C)CC2)n1 [Compound D5S11N8] | 36.2
CCCCCCCCCCCSc1nc(NCCCCCCCCC)nc(NCCN2CCN(C)CC2)n1 [Compound D5S11N9] | 41.5
CCCCCCCCCCCNc1nc(NCCN2CCN(C)CC2)nc(SCCCCCCCCCCC)n1 [Compound D5S11N11] | 36.5
CCCCCCCCCCCCNc1nc(NCCN2CCN(C)CC2)nc(SCCCCCCCCCCC)n1 [Compound D5S11N12] | 22.8
CCCCCCCCCCCCCNc1nc(NCCN2CCN(C)CC2)nc(SCCCCCCCCCCC)n1 [Compound D5S11N13] | 11.2
CCCCCCCCCCCCCCCNc1nc(NCCN2CCN(C)CC2)nc(SCCCCCCCCCCC)n1 [Compound D5S11N15] | 20.4
CCCCCCCCCCCCCCCCNc1nc(NCCN2CCN(C)CC2)nc(SCCCCCCCCCCC)n1 [Compound D5S11N16] | 3.9
CCCCCCCCCCCCCCCCCCNc1nc(NCCN2CCN(C)CC2)nc(SCCCCCCCCCCC)n1 [Compound D5S11N18] | 4.7
CCCCCCCCCCCCSc1nc(NCCCCCC)nc(NCCN2CCN(C)CC2)n1 [Compound D5S12N6] | 0.3
CCCCCCCCCCCCSc1nc(NCCCCCCC)nc(NCCN2CCN(C)CC2)n1 [Compound D5S12N7] | 9.9
CCCCCCCCCCCCSc1nc(NCCCCCCCC)nc(NCCN2CCN(C)CC2)n1 [Compound D5S12N8] | 22.6
CCCCCCCCCCCCSc1nc(NCCCCCCCCC)nc(NCCN2CCN(C)CC2)n1 [Compound D5S12N9] | 26.5
CCCCCCCCCCCCSc1nc(NCCCCCCCCCCC)nc(NCCN2CCN(C)CC2)n1 [Compound D5S12N11] | 1.1
CCCCCCCCCCCCNc1nc(NCCN2CCN(C)CC2)nc(SCCCCCCCCCCCC)n1 [Compound D5S12N12] | 3.5
CCCCCCCCCCCCCNc1nc(NCCN2CCN(C)CC2)nc(SCCCCCCCCCCCC)n1 [Compound D5S12N13] | 0.4
CCCCCCCCCCCCCCCNc1nc(NCCN2CCN(C)CC2)nc(SCCCCCCCCCCCC)n1 [Compound D5S12N15] | 0.8
CCCCCCCCCCCCCCCCNc1nc(NCCN2CCN(C)CC2)nc(SCCCCCCCCCCCC)n1 [Compound D5S12N16] | 3.7
CCCCCCCCCCCCCCCCCCNc1nc(NCCN2CCN(C)CC2)nc(SCCCCCCCCCCCC)n1 [Compound D5S12N18] | 0.0

SMILES | Absolute mRNA transfection efficiency in HEK293 cells [%]
CCCCCCCCCCCCCCSc1nc(NCCCCCC)nc(NCCN2CCN(C)CC2)n1 [Compound D5S14N6] | 48.0
CCCCCCCCCCCCCCSc1nc(NCCCCCCC)nc(NCCN2CCN(C)CC2)n1 [Compound D5S14N7] | 59.0
CCCCCCCCCCCCCCSc1nc(NCCCCCCCC)nc(NCCN2CCN(C)CC2)n1 [Compound D5S14N8] | 65.6
CCCCCCCCCCCCCCSc1nc(NCCCCCCCCC)nc(NCCN2CCN(C)CC2)n1 [Compound D5S14N9] | 44.9
CCCCCCCCCCCCCCSc1nc(NCCCCCCCCCCC)nc(NCCN2CCN(C)CC2)n1 [Compound D5S14N11] | 19.8
CCCCCCCCCCCCCCSc1nc(NCCCCCCCCCCCC)nc(NCCN2CCN(C)CC2)n1 [Compound D5S14N12] | 11.3
CCCCCCCCCCCCCCSc1nc(NCCCCCCCCCCCCC)nc(NCCN2CCN(C)CC2)n1 [Compound D5S14N13] | 12.9
CCCCCCCCCCCCCCCNc1nc(NCCN2CCN(C)CC2)nc(SCCCCCCCCCCCCCC)n1 [Compound D5S14N15] | 0.3
CCCCCCCCCCCCCCCCNc1nc(NCCN2CCN(C)CC2)nc(SCCCCCCCCCCCCCC)n1 [Compound D5S14N16] | 0.6
CCCCCCCCCCCCCCCCCCNc1nc(NCCN2CCN(C)CC2)nc(SCCCCCCCCCCCCCC)n1 [Compound D5S14N18] | 0.6
CCCCCCCCCCCCCCCSc1nc(NCCCCCC)nc(NCCN2CCN(C)CC2)n1 [Compound D5S15N6] | 45.9
CCCCCCCCCCCCCCCSc1nc(NCCCCCCC)nc(NCCN2CCN(C)CC2)n1 [Compound D5S15N7] | 25.2
CCCCCCCCCCCCCCCSc1nc(NCCCCCCCC)nc(NCCN2CCN(C)CC2)n1 [Compound D5S15N8] | 94.7
CCCCCCCCCCCCCCCSc1nc(NCCCCCCCCC)nc(NCCN2CCN(C)CC2)n1 [Compound D5S15N9] | 22.3
CCCCCCCCCCCCCCCSc1nc(NCCCCCCCCCCC)nc(NCCN2CCN(C)CC2)n1 [Compound D5S15N11] | 12.7
CCCCCCCCCCCCCCCSc1nc(NCCCCCCCCCCCC)nc(NCCN2CCN(C)CC2)n1 [Compound D5S15N12] | 4.3
CCCCCCCCCCCCCCCSc1nc(NCCCCCCCCCCCCC)nc(NCCN2CCN(C)CC2)n1 [Compound D5S15N13] | 1.5
CCCCCCCCCCCCCCCNc1nc(NCCN2CCN(C)CC2)nc(SCCCCCCCCCCCCCCC)n1 [Compound D5S15N15] | 0.7
CCCCCCCCCCCCCCCCNc1nc(NCCN2CCN(C)CC2)nc(SCCCCCCCCCCCCCCC)n1 [Compound D5S15N16] | 1.4
CCCCCCCCCCCCCCCCCCNc1nc(NCCN2CCN(C)CC2)nc(SCCCCCCCCCCCCCCC)n1 [Compound D5S15N18] | 1.7
CCCCCCCCCCCCCCCCSc1nc(NCCCCCC)nc(NCCN2CCN(C)CC2)n1 [Compound D5S16N6] | 63.2

SMILES | Absolute mRNA transfection efficiency in HEK293 cells [%]
CCCCCCCCCCCCCCCCSc1nc(NCCCCCCC)nc(NCCN2CCN(C)CC2)n1 [Compound D5S16N7] | 82.6
CCCCCCCCCCCCCCCCSc1nc(NCCCCCCCC)nc(NCCN2CCN(C)CC2)n1 [Compound D5S16N8] | 72.2
CCCCCCCCCCCCCCCCSc1nc(NCCCCCCCCC)nc(NCCN2CCN(C)CC2)n1 [Compound D5S16N9] | 68.1
CCCCCCCCCCCCCCCCSc1nc(NCCCCCCCCCCC)nc(NCCN2CCN(C)CC2)n1 [Compound D5S16N11] | 45.0
CCCCCCCCCCCCCCCCSc1nc(NCCCCCCCCCCCC)nc(NCCN2CCN(C)CC2)n1 [Compound D5S16N12] | 3.4
CCCCCCCCCCCCCCCCSc1nc(NCCCCCCCCCCCCC)nc(NCCN2CCN(C)CC2)n1 [Compound D5S16N13] | 0.7
CCCCCCCCCCCCCCCCSc1nc(NCCCCCCCCCCCCCCC)nc(NCCN2CCN(C)CC2)n1 [Compound D5S16N15] | 0.1
CCCCCCCCCCCCCCCCNc1nc(NCCN2CCN(C)CC2)nc(SCCCCCCCCCCCCCCCC)n1 [Compound D5S16N16] | 0.1
CCCCCCCCCCCCCCCCCCNc1nc(NCCN2CCN(C)CC2)nc(SCCCCCCCCCCCCCCCC)n1 [Compound D5S16N18] | 0.2
CCCCCCCCCCCCCCCCCCSc1nc(NCCCCCC)nc(NCCN2CCN(C)CC2)n1 [Compound D5S18N6] | 73.2
CCCCCCCCCCCCCCCCCCSc1nc(NCCCCCCC)nc(NCCN2CCN(C)CC2)n1 [Compound D5S18N7] | 67.7
CCCCCCCCCCCCCCCCCCSc1nc(NCCCCCCCC)nc(NCCN2CCN(C)CC2)n1 [Compound D5S18N8] | 33.4
CCCCCCCCCCCCCCCCCCSc1nc(NCCCCCCCCC)nc(NCCN2CCN(C)CC2)n1 [Compound D5S18N9] | 11.6
CCCCCCCCCCCCCCCCCCSc1nc(NCCCCCCCCCCC)nc(NCCN2CCN(C)CC2)n1 [Compound D5S18N11] | 1.1
CCCCCCCCCCCCCCCCCCSc1nc(NCCCCCCCCCCCC)nc(NCCN2CCN(C)CC2)n1 [Compound D5S18N12] | 1.7
CCCCCCCCCCCCCCCCCCSc1nc(NCCCCCCCCCCCCC)nc(NCCN2CCN(C)CC2)n1 [Compound D5S18N13] | 1.4
CCCCCCCCCCCCCCCCCCSc1nc(NCCCCCCCCCCCCCCC)nc(NCCN2CCN(C)CC2)n1 [Compound D5S18N15] | 0.1
CCCCCCCCCCCCCCCCCCSc1nc(NCCCCCCCCCCCCCCCC)nc(NCCN2CCN(C)CC2)n1 [Compound D5S18N16] | 0.1
CCCCCCCCCCCCCCCCCCNc1nc(NCCN2CCN(C)CC2)nc(SCCCCCCCCCCCCCCCCCC)n1 [Compound D5S18N18] | 0.0
CCCCCCNc1nc(NCCCN(C)C)nc(SCCCCCC)n1 [Compound D6S6N6] | 0.0
CCCCCCCNc1nc(NCCCN(C)C)nc(SCCCCCC)n1 [Compound D6S6N7] | 0.2

— patent US20230123334A1, “AMINO LIPID COMPOUND, PREPARATION METHOD THEREFOR, AND APPLICATION THEREOF” (SHENZHEN SHENXIN BIOTECHNOLOGY CO., LTD., priority 2020, published 2023)
